Laboratory results: patent US20120277306A1, “COMPOSITION CONTAINING METAL-ACIDIC AMINO ACID CHELATE ACCELERATING ABSORPTION OF METAL” (priority 2006, published 2012)

Tests used:
[1] = Plasma zinc concentration over time after administration of zinc samples; assay type: in vivo, Sprague-Dawley rat; settings: zinc 40 mg/kg; for plasma zinc concentration over time: blood at 0.5, 1, 2, 4, 8 hours
Description: These experimental animals were randomly assigned into a zinc sulfate-administered group, a zinc arginine-administered group and a zinc-aspartate chelate-administered group. After animals were fasted for 12 hours, each zinc sample was administered to rats, such that a zinc concentration in the sample is 40 mg/kg. After administration of the samples was complete, blood was collected at a time point of 0.5, 1, 2, 4, and 8 hours, respectively, and treated with heparin. Then, blood plasma was stored in a refrigerator and used for analysis of zinc concentrations. On the other hand, in order to examine distribution of zinc in the tissue, each zinc sample was administered to rats. After 8 hours, animals were sacrificed to remove organs. Zinc concentrations in the blood plasma and tissues were determined by fluorometry using Zinquin.

[2] = system: ZnT-2; assay: Expression of zinc transporter protein mRNA in prostatic tissue (RT-PCR); assay type: in vivo; settings: compared to before oral administration of zinc
Description: In order to examine effects of zinc-aspartate complex on the expression of ZnT-2 and ZnT-4, known as zinc transporter proteins, experiments were carried out according to the following procedure.
Using Trizol Reagent (Invitrogen, USA), total RNA was extracted from 0.1 g of prostatic tissue. Using M-MLV reverse transcriptase (Invitrogen, USA), cDNA was synthesized from 5 μg of the extracted total RNA. 20 pmol of a primer was added to 3 μl of cDNA to make a volume of 20 μl and PCR was carried out as follows: initial denaturation at 95° C. for 5 min, followed by 26 cycles of denaturation at 94° C. for 1 min, annealing at an annealing temperature corresponding to conditions of each primer for 1 min and extension at 72° C. for 1 min, and final extension at 72° C. for 10 min.
PCR products were subjected to electrophoresis on 1.5% agarose gel containing EtBr, followed by confirmation of products under UV irradiation.
Effects of the zinc-aspartate complex, zinc sulfate and zinc arginine on the expression of mRNAs for ZnT-2, ZnT-4 and G3PDH were investigated.

[3] = system: prostatitis-induced rats (Escherichia coli ATCC 25922); assay: White rat model of chronic bacterial prostatitis, H&E histology of prostate
[4] = system: prostate cancer cell line (R3327 AT-3.1); assay: Prostate cancer model, growth of cancer cells injected into the prostate; assay type: in vivo, COP rat
Description: 10-week-old COP male rats (Japan SLC, Shizuoka, Japan) were housed and allowed to acclimate to the new environment for seven days prior to the experiment, in a breeding room maintained at a temperature of 22±2° C., humidity of 55±5%, and a 12-h light/dark (L/D) cycle (light from 8:00 a.m. to 8:00 p.m.).
5×10^4 cells/head of the prostate cancer cell line (R3327 AT-3.1) were injected into the prostate of animals and growth of cancer cells was measured.

[5] = system: patients with chronic prostatitis; assay: Clinical trial of zinc-aspartate chelate in chronic prostatitis patients (NIH-CPSI); assay type: in vivo, human
Description: 34 patients with a medical history of more than 5 years of chronic prostatitis were administered with a zinc-aspartate chelate at a dose of 50 mg/day for 8 weeks. Clinical trials were conducted at the Department of Urology, College of Medicine, Korea University (Seoul, Korea). Prostatitis classification and symptom relief were analyzed according to National Institutes of Health Chronic Prostatitis Symptom Index (NIH-CPSI, proposed by NIH in 1995). As clinical effects by a conventional therapy, the data of the clinical study of Sungkyunkwan University School of Medicine (Seoul, Korea), published in the Korean Journal of Urology (2001), were cited.
Tables 3 and 4 below respectively show the results for chronic prostatitis patients with administration of an antibiotic and an anti-inflammatory drug as conventional therapeutic agents and with administration of the zinc-aspartate chelate, in conjunction with the results for the control group.

[6] = Distribution of zinc in tissues (prostate, testis) after administration of zinc samples; assay type: in vivo, Sprague-Dawley rat
[7] = 15 mg/kg/day oral, 30 days, H&E stained prostate sections
[8] = 4 and 8 hours after administration
[9] = 8 hours after administration, zinc 40 mg/kg, p<0.001

N=C(N)NCCC[C@H](N)C(=O)O.[Zn] [zinc arginine]
plasma zinc concentration compared to zinc sulfate-administered group [1]: significant increase
plasma zinc concentration over time [1]: time-dependent increase

zinc-aspartate chelate
plasma zinc concentration compared to zinc sulfate-administered group [1]: significant increase
time point of maximum blood zinc level after administration [1]: 2 h
plasma zinc concentration over time [1]: time-dependent increase
expression level of ZnT-2 mRNA [2]: highest increase
fibrosis in the interstitium [3, 7]: substantially no progress of fibrosis
infiltration of inflammatory cells into and around glandular tissues [3, 7]: no infiltration of inflammatory cells
prostate tissue morphology ([3]; 15 mg/kg/day oral, 30 days, compared with normal group): normal tissue morphology comparable to that of the normal group
anti-inflammatory effects ([3]; E. coli inoculated prostate, oral administration, stained prostate tissues): excellent anti-inflammatory effects
weight of tumor mass compared to the control group ([4]; 10 mg/kg oral daily): significant weight reduction of tumor mass
weight of tumor mass compared to the Taxel group ([4]; 10 mg/kg oral daily vs DoceTaxel 10 mg/kg once a week I.P): much lower weight of tumor mass
side effects ([5]; 50 mg/day for 8 weeks, 34 patients): no reports showing noticeable side effects
NIH-CPSI Dysuria, after treatment ([5]; 8 weeks, oral administration, 50 mg/day, P 0.01): 4.02
NIH-CPSI Pain, after treatment ([5]; 8 weeks, oral administration, 50 mg/day, P 0.036): 6.82
NIH-CPSI Quality of life, after treatment ([5]; 8 weeks, oral administration, 50 mg/day, P 0.04): 2.61
NIH-CPSI Dysuria, before treatment ([5]; baseline, n = 34): 5.53
NIH-CPSI Pain, before treatment ([5]; baseline, n = 34): 8.412
NIH-CPSI Quality of life, before treatment ([5]; baseline, n = 34): 3.53
therapeutic effects compared with conventional drug therapy and physical therapy ([5]; chronic prostatitis patients, Tables 3 and 4): almost the similar level of therapeutic effects
intraprostatic zinc level compared to zinc sulfate- and zinc arginine-administered groups [6, 8]: significantly high zinc concentration
intratesticular zinc level compared to zinc sulfate- and zinc arginine-administered groups [6, 8]: significantly high zinc concentration
zinc concentration in testis [6, 9]: significantly high zinc concentration
zinc concentration in the prostatic tissue [6, 9]: significantly high zinc concentration

O=S(=O)([O-])[O-].[Zn+2] [zinc sulfate]
time point of maximum blood zinc level after administration [1]: 2 h
plasma zinc concentration over time [1]: time-dependent increase
